The nature of this data set: Measurement of plasma concentration after patch application. Type of data set: in vivo, human. Conditions: for AUC(0-t) / Cmax: male, human, in vivo. As for the experimental part: The blood was collected at each of 0, 0.5, 1, 2, 3, 4, 6, 8, 10, 12, 18, and 24 hours from the start of the application, and the amount of blood collected each time was 7 mL.
The plasma concentrations of the methyl salicylate, its metabolite salicylic acid, and the 1-menthol were each measured. The measurement was performed by liquid chromatography-mass spectrometry for the salicylic acid and by gas chromatography-mass spectrometry for the methyl salicylate and the 1-menthol. Each of the measurement methods was validated beforehand to confirm measurement reliability. Incidentally, values obtained by subtracting an endogenous concentration before the application (measurement value on 0 hour from the start of the application) from an actual measurement value were used as plasma concentrations during the application. The Cmax and AUC0-24 were calculated according to the changes in the measurement values of these plasma concentrations over time.
Changes in the plasma concentrations of the salicylic acid, the methyl salicylate, and the 1-menthol over time are shown in FIG. 4 to FIG. 6. In addition, the pharmacokinetic parameters (mean, maximum value, and minimum value of Cmax and AUC0-24) of each of the drugs are shown in Table 6. Incidentally, a mean in the figure was an average value from the seven human subjects and represented using a standard deviation (SD). This measurement of the plasma concentrations was performed according to the guideline of FDA (U.S. Food and Drug Administration) (Gaidance for Industry=Bioanalytical Method Validation).

[1] abbreviates: plasma, 280 cm^2 adhesive patch of Example 1 (methyl salicylate 336 mg, l-menthol 100 mg) applied 8 hours, seven healthy males, baseline-subtracted.
Setting [2] is: plasma, 280 cm^2 adhesive patch of Example 1 applied 8 hours, seven healthy males.

By AUC(0-t) is commonly meant the area under the concentration-time curve up to a stated or last time point. Lower therefore signals low exposure. What is called Cmax is the peak of the concentration-time curve. As to `COC(=O)c1ccccc1O` [Methyl Salicylate], the AUC(0-t) turned out to be 50 ng·h/mL (AUC0-24, Maximum Value) and 8.1 ng·h/mL (AUC0-24, Minimum Value). This molecule also displayed a Cmax (Maximum Value) of 33 ng/mL and a Cmax (Minimum Value) of 3.5 ng/mL.

`O=C(O)c1ccccc1O` [Salicylic Acid]: the AUC(0-t) is, setting by setting: (AUC0-24, Maximum Value) 11800 ng·h/mL; (AUC0-24, Minimum Value) 3950 ng·h/mL. Moreover, the Cmax by setting is: (Maximum Value) 1770 ng/mL; (Minimum Value) 705 ng/mL.

With `CC(C)[C@@H]1CC[C@@H](C)C[C@H]1O` [l-Menthol], under setting [1], the “AUC0-24, Mean ± SD” value amounted to 53.6 ± 33.4 ng·h/mL and the “Cmax, Mean ± SD” value stood at 10.7 ± 6.4 ng/mL. Under setting [2], the “AUC0-24, Maximum Value” was 109 ng·h/mL; the “AUC0-24, Minimum Value” was 15.4 ng·h/mL; the “Cmax, Maximum Value” is listed as 22.5 ng/mL; the “Cmax, Minimum Value” stood at 4.5 ng/mL.
